The results in this text go back to ChEMBL document CHEMBL1201862, “PubChem BioAssay data set” (2004).

Test systems include UO-31; HCT-15; IGROV-1; 786-0; HCT-116; UACC-257; HL-60; ACHN; OVCAR-5; COLO 205; MOLT-4; CCRF-CEM; SNB-19; SF-268; NCI-H23; SK-MEL-28; OVCAR-4; SF-539; SK-MEL-5; A498.
Experiment in all cases: growth of human tumour cells (NCI), 48 h

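All cell lines were grown in 96-well plates and treated with compound for 48 hours. At the GI50, growth is halved.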 The source made the active and inactive calls. No stated cut-off is given here; in the data, active = GI50 up to about 1.1 µM and inactive = higher.

With `CCOC(=O)c1c(-c2ccccc2)c(C(OC(c2ccccc2)c2c(-c3ccccc3)c(C(=O)OCC)n3ccccc23)c2ccccc2)c2ccccn12` (stereo not given), the GI50 with UO-31 was > 100 µM (inactive); with HCT-15 it was more than 100 µM; in the assay on IGROV-1, > 100 µM (inactive); in the assay on 786-0 it was > 100 µM (inactive); in the assay on HCT-116 it was > 100 µM (inactive); with UACC-257, > 100 µM (inactive). Further, the GI50 in the assay on HL-60, with ACHN, with OVCAR-5, in the assay with COLO 205, in the assay on MOLT-4 and in the assay with CCRF-CEM was > 100 µM (inactive) throughout. In addition, the GI50 in the assay with SNB-19, with SF-268, in the assay on NCI-H23, in the assay on SK-MEL-28 and with OVCAR-4 was > 100 µM (inactive) each time.

For `Cc1ccc([N+](=O)[O-])cc1S(=O)(=O)Nc1ccc(C2=NN(c3ccc([N+](=O)[O-])cc3[N+](=O)[O-])C(c3ccccc3)C2)cc1` (stereo not given), the GI50 with UO-31 was 14.8 µM (inactive); in the assay on HCT-15 it was 14.6 µM; in the assay on IGROV-1 it was 16.6 µM (inactive); with SF-539, 20.3 µM (inactive); in the assay on 786-0 it was 15.4 µM (inactive); with HCT-116, 13 µM (inactive). In addition, the GI50 in the assay on UACC-257 is 16.2 µM (inactive); in the assay with HL-60, 20.3 µM (inactive); in the assay with ACHN, 17.6 µM (inactive); in the assay on OVCAR-5, 23.7 µM (inactive); with COLO 205, 19.2 µM (inactive); with MOLT-4, 16.8 µM (inactive). Also, the GI50 in the assay on CCRF-CEM is 22.1 µM (inactive); with SNB-19 it was 17.1 µM (inactive); in the assay on SF-268 it was 13.1 µM (inactive); in the assay with NCI-H23, 14.6 µM (inactive); with SK-MEL-28, 34.5 µM (inactive); in the assay on SK-MEL-5, 11.9 µM (inactive). Besides, the GI50 in the assay with OVCAR-4 was 19.8 µM (inactive).

For the molecule `Cc1cc(O)nc(NN2C(Cl)C(=O)C2c2cccc([N+](=O)[O-])c2)n1` (stereo not given), the GI50 is 36.6 µM (inactive) in the assay with UO-31; 15.1 µM with HCT-15; > 10 µM (inactive) in the assay on IGROV-1; 19.7 µM (inactive) in the assay on HCT-116; 29 µM (inactive) in the assay on UACC-257; 13.5 µM (inactive) in the assay on HL-60. Also, the GI50 with ACHN is 29.2 µM (inactive); in the assay with OVCAR-5, > 100 µM (inactive); in the assay on COLO 205, 22.7 µM (inactive); in the assay with MOLT-4, 14.3 µM (inactive); with CCRF-CEM it was 3.52 µM (inactive); with SNB-19, 44 µM (inactive). For the same molecule, the GI50 in the assay on SF-268 is 35.2 µM (inactive); in the assay with NCI-H23 it was 20.7 µM (inactive); in the assay with SK-MEL-28 it was 17.1 µM (inactive); in the assay on SK-MEL-5 it was 17.5 µM (inactive); in the assay on OVCAR-4, 23.6 µM (inactive).

`N#Cc1c(Nc2ccc(F)cc2)[n+]([O-])c2ccc(Cl)cc2[n+]1[O-]`: the GI50 in the assay on UO-31 is 4.58 µM (inactive); in the assay on HCT-15 it was 2.5 µM; in the assay on IGROV-1, 1.33 µM (inactive); with SF-539, 2.56 µM (inactive); with 786-0, 3.34 µM (inactive); with HCT-116 it was 3.05 µM (inactive). For the same molecule, the GI50 in the assay on UACC-257 was 2.91 µM (inactive); in the assay on COLO 205, 1.95 µM (inactive); in the assay on MOLT-4 it was 2.52 µM (inactive); in the assay on CCRF-CEM it was 2.62 µM (inactive); in the assay with SNB-19, 6 µM (inactive); with SF-268, 2.53 µM (inactive). For the same molecule, the GI50 with NCI-H23 is 3.84 µM (inactive); in the assay with SK-MEL-28, 16.1 µM (inactive); in the assay on A498 it was 2.88 µM (inactive); with SK-MEL-5, 3.91 µM (inactive); with OVCAR-4, 2.03 µM (inactive).

`O=c1oc2ccccc2cc1-c1cn2cc(Cl)ccc2n1`: the GI50 in the assay on UO-31 is 1.32 µM (inactive); in the assay with HCT-15, 0.298 µM; in the assay on IGROV-1, 0.685 µM (active); with SF-539 it was 1.48 µM (inactive); in the assay with 786-0, 1 µM (active); in the assay on HCT-116 it was 0.448 µM (active). The GI50 in the assay on UACC-257 was 4.58 µM (inactive); with HL-60, 2.59 µM (inactive); with ACHN, 0.586 µM (active); with OVCAR-5, 10.1 µM (inactive); in the assay on COLO 205, 0.865 µM (active); in the assay on MOLT-4, 0.422 µM (active). The GI50 in the assay on SNB-19 is 0.494 µM (active); in the assay on SF-268 it was 1.44 µM (inactive); in the assay with NCI-H23, 3.09 µM (inactive); with SK-MEL-28, 2.08 µM (inactive); in the assay on SK-MEL-5 it was 0.782 µM (active); in the assay on OVCAR-4 it was 2.46 µM (inactive).

Regarding `O=C(O)c1ccccc1-c1ccccc1C(=O)Nc1ccc2c(c1)Cc1cc(F)ccc1-2`, the GI50 in the assay on UO-31 was 27.8 µM (inactive); in the assay on HCT-15, 17.6 µM; with IGROV-1, 34 µM (inactive); in the assay on SF-539, 29.5 µM (inactive); in the assay with 786-0, 24.3 µM (inactive); with HCT-116, 16 µM (inactive). Moreover, the GI50 in the assay on UACC-257 was 22.1 µM (inactive); with ACHN it was 21.2 µM (inactive); with OVCAR-5, 30.8 µM (inactive); in the assay on COLO 205 it was 17.4 µM (inactive); with MOLT-4, 26.7 µM (inactive); in the assay on SNB-19, 36.4 µM (inactive). Moreover, the GI50 in the assay with SF-268 was 43.6 µM (inactive); in the assay on NCI-H23 it was 17.9 µM (inactive); in the assay with SK-MEL-28, 37.8 µM (inactive); in the assay with A498, 19 µM (inactive); with SK-MEL-5 it was 19.5 µM (inactive); in the assay with OVCAR-4 it was 25.9 µM (inactive).

In the case of `Cc1c2c(n(CCN(C)C)c1C)NN=C(C#N)S2(=O)=O`, the GI50 was > 100 µM (inactive) in the assay on UO-31; more than 100 µM with HCT-15; > 100 µM (inactive) in the assay with IGROV-1; > 100 µM (inactive) with SF-539; > 100 µM (inactive) in the assay on 786-0; > 100 µM (inactive) in the assay with HCT-116. The GI50 with UACC-257, in the assay on ACHN, in the assay with OVCAR-5, in the assay with COLO 205, in the assay with MOLT-4 and in the assay on SNB-19 was > 100 µM (inactive) in each case. The GI50 in the assay on SF-268, with NCI-H23, in the assay on SK-MEL-28 and with OVCAR-4 was > 100 µM (inactive) each time.

Consider `CSC1=Nc2ccccc2N(C)c2c1c(-c1ccccc1)nn2C`, for which the GI50 in the assay with HCT-15 was 56.9 µM; in the assay on IGROV-1, 42.9 µM (inactive); in the assay on SF-539, 63.7 µM (inactive); in the assay with HCT-116 it was 22.1 µM (inactive); in the assay with UACC-257 it was 73.1 µM (inactive); in the assay with HL-60, 15.2 µM (inactive). The GI50 with ACHN was 29.9 µM (inactive); in the assay with OVCAR-5, > 100 µM (inactive); in the assay with COLO 205 it was 38 µM (inactive); with MOLT-4, 8.99 µM (inactive); in the assay with CCRF-CEM, 22.1 µM (inactive); in the assay on SF-268, 17 µM (inactive). Moreover, the GI50 was 14.1 µM (inactive) with NCI-H23, > 100 µM (inactive) with SK-MEL-28, 17.8 µM (inactive) in the assay with SK-MEL-5 and 43.1 µM (inactive) with OVCAR-4.

In the case of `O=C1CSC(c2ccc(Cl)cc2Cl)N1c1ccc(Oc2ccc(Cl)cc2)c(Cl)c1` (stereo not given), the GI50 was 7.08 µM (inactive) in the assay with UO-31; 25.6 µM with HCT-15; 28.1 µM (inactive) in the assay on IGROV-1; 21.6 µM (inactive) in the assay on SF-539; 17.5 µM (inactive) in the assay on 786-0; 16.9 µM (inactive) with HCT-116. Also, the GI50 is 37.1 µM (inactive) with UACC-257; 16.4 µM (inactive) with HL-60; 35.7 µM (inactive) in the assay on ACHN; 33.3 µM (inactive) in the assay with OVCAR-5; 25.5 µM (inactive) in the assay with COLO 205; 24.3 µM (inactive) with MOLT-4. In addition, the GI50 with CCRF-CEM is 13.5 µM (inactive); with SNB-19, 23.6 µM (inactive); in the assay with SF-268 it was 16 µM (inactive); with NCI-H23, 27 µM (inactive); in the assay on SK-MEL-28, 39.4 µM (inactive); in the assay with SK-MEL-5, 19 µM (inactive). The GI50 with OVCAR-4 was 23.8 µM (inactive).

With `O=C1c2sc(-c3ccc(F)cc3)cc2-n2cccc21`, the GI50 in the assay with UO-31 was 22.5 µM (inactive); in the assay with HCT-15, 51.3 µM; in the assay with IGROV-1, 8.39 µM (inactive); with 786-0, 16.9 µM (inactive); with HCT-116 it was 18.4 µM (inactive); in the assay on UACC-257 it was 47.5 µM (inactive). Moreover, the GI50 in the assay with ACHN is 29.9 µM (inactive); with OVCAR-5, > 100 µM (inactive); in the assay with COLO 205 it was 48 µM (inactive); in the assay on MOLT-4, 21.4 µM (inactive); in the assay on CCRF-CEM, 28.5 µM (inactive); in the assay on SNB-19, 16.7 µM (inactive). Besides, the GI50 was 19.9 µM (inactive) in the assay on SF-268; 69.8 µM (inactive) in the assay on SK-MEL-28; 23.3 µM (inactive) with A498; 38.5 µM (inactive) in the assay on SK-MEL-5; 28.1 µM (inactive) with OVCAR-4.

For `CCOC(=O)C1S(=O)(=O)OCCOS1(=O)=O`, the GI50 with UO-31, in the assay on IGROV-1, in the assay with SF-539, with 786-0, in the assay with HCT-116 and in the assay with UACC-257 was > 100 µM (inactive) each time. The GI50 in the assay on HL-60, with COLO 205, in the assay on MOLT-4, in the assay on CCRF-CEM, in the assay with SNB-19 and with SF-268 was > 100 µM (inactive) each time. The GI50 with NCI-H23, in the assay on SK-MEL-28, in the assay on SK-MEL-5 and with OVCAR-4 was > 100 µM (inactive) throughout.
